Experimental data as given in US20160324884A1, “TREATMENT OF DIABETES WITH PENTACYCLIC TRITERPENOID SAPONIN COMPOUNDS FROM SZECHUAN MELANDIUM ROOT” (priority 2013, published 2016).

Tests used:
[1] = test system: T2DM rats; assay: Fasting glycemia in T2DM model rats (high-fat emulsion + STZ, Example 5); format: in vivo, SD rats
From the text: 50 male SD rats (180-200 g, License NO. SCXK (BJ) 2011-0004, Beijing SPF Experimental Animal Technology Co. Ltd.) were adaptively bred for 1 week, and then used in the pharmacological experiment.
Animals were housed individually in wood-chip-bedded plastic cages and fed a standard laboratory chow. All the animals had ad libitum access to food and water.
50 SD rats were adaptively bred for 1 week, and then randomly assigned into 5 groups: The control group, model group, Compound (1) group, Compound (2) group and glucobay group (the positive group), 10 rats per group. All the animals were in a standard laboratory diet. Control and model group animals were hypodermically injected with sterile water, test compound treatment groups were subcutaneously injected with the Compounds (1) and (2), and the positive group was administrated glucobay solution by gavage. All the animals were administrated at 9 am for 2 weeks, and the dose volume is 10 ml/kg BW.
The Compounds (1) and (2) were dissolved into sterile water, and sterilized with filtration, Sc. Glucobay was dissolved into sterile water, lg. Animals in the control and model groups were injected with sterile water (10 ml/kg BW), Sc. All the animals were treated at 9 am for 2 weeks (14 days).
All rats except the control group were administrated intragastrically with the high-fat emulsion (10 ml/kg) and weighed the body weight weekly. After weeks of administration, rats were intraperitoneally injected with streptozotocin (STZ, dissolved in citric acid-citrate sodium solution, pH 4.2, freshly prepared and used instantly, and store away from light) (30mg/kg). 4 days later, blood glucose level in rats was measured by tail blood test. Diabetes was defined as fasting blood glucose level>11.1 mmol/Lin in this experiment.
The blood glucose level was measured before and after administration of the treatment compounds for 2 weeks, respectively. The animals were fasted overnight and tail blood samples were taken. Fasting glycemia was measured by using One Touch ULTRA Glucometer or kits.

[2] = test system: KK^Ay mice; assay: Body weight, food and water intake in KK^Ay mice (Example 3); format: in vivo; details: vs model group
From the text: (§1) 60 male KK^Ay mice (12 weeks of age, License NO. SCXK (BJ) 2009-0015, Beijing Huafukang Biology Technology Co. Ltd.) and 10 normal male C57BL/6 mice (12 weeks of age, License NO. SCXK (BJ) 2009-0015, Beijing Huafukang Biology Technology Co. Ltd.) were adaptively bred for one week, and then used in the following experiment.
The animals were housed individually in wood-chip-bedded plastic cages. Germ-free and high-fat diets (Beijing Huafukang Biology Technology Co. Ltd.) were used to feed the KK^Ay mice. All the animals had free access to food and water.
(§2) 60 KK^Ay mice were adaptively bred for 1 week, and then randomly assigned into 6 groups: Model group, Compound (1) group, Compound (2) group, Compound (3) group, Compound (4) group, and metformin group, 10 mice per group. 10 normal C57BL/6 mice were used for the control group. KK^Ay mice were in a high-fat diet, and the control normal mice were in a normal control diet. The control and model groups were hypodermically injected with sterile water, the 6 medicated groups mice were subcutaneously injected with […] Wacao saponins, (Compounds (1), (2), (3) and (4)) respectively, and the positive group was administered metformin by gavage. All mice were administrated at 9 am for 2 weeks and the administration volume is 10 ml/kg BW.
The body weight, food and water intake of each mouse was measured and recorded weekly throughout the course of the experiment. At the end of the experiment, collected the blood and separated serum, fasting blood glucose, insulin levels and insulin sensitivity index (ISI) were measured or calculated in each group. Liver, skeletal muscles of mice in each group were taken and weighed for detecting glycogen levels of the hepatic and muscles after mice being killed.
(§3) Compound (1), (2), (3) and (4) were respectively dissolved into sterile water, and sterilized with filtration for Sc. to the medication groups. The metformin was dissolved into sterile water for lg. to the positive control group. Control and model groups animals were injected with sterile water (10 ml/kg BW), Sc. All the animals were treated daily at 9 am for 2 weeks (14 days).
Measurement of food and water intake: 24 hours' food and water intake were measured by gravimetry once a week. It should be paid attention to recycling leakage of small forage into the feed box to ensure the accuracy of food intake.
Determination of body weight: The body weight of mice was measured and recorded once a week.
Results are shown as means±SD. Statistical analysis data were analyzed by using SPSS 10.0 software. Data were evaluated with analysis of variance.

[3] = test system: KK^Ay mice; assay: Glycemia in KK^Ay mice during treatment and after withdrawal (Example 3); format: in vivo
From the text: as §1, §2, §3
Blood detection: Blood glucose was measured weekly. Overnight fasting glycemia level was measured with One Touch ULTRA Glucometer for the tail blood test. At the end of the experiment, blood serum was collected for measuring levels of fasting blood glucose and insulin, and the insulin sensitivity index (ISI) was calculated. At the same time, hepatic tissues and skeletal muscles of mice were taken out to determine levels of hepatic and muscle glycogen by detection kits.
Termination of the experiment After administrating mice for 2 weeks (14 days), the experiment was terminated.
This experiment is to observe the anti-hyperglycemia effects of Wacao saponins on KK^Ay mice during and after the period of drug treatment, respectively.

[4] = test system: normal ICR mice; assay: Glycemia in normal ICR mice (Example 4); format: in vivo; details: 2.0 mg/kg Sc, vs control group
From the text: 40 male ICR mice (20-22g, License NO. SCXK (BJ) 2011-0004, Beijing SPF Experimental Animal Technology Co. Ltd.) were adaptively bred for one week, and then used in the following experiment.
Animals were housed individually in wood-chip-bedded plastic cages and fed the standard laboratory chow. All the animals had ad libitum access to food and water.
40 ICR mice were adaptively bred for 1 week, and then randomly assigned into 4 groups: Model, Compound (1), Compound (2) and metformin group, 10 mice per group. All the animals were fed with normal food. Mice in the control group were hypodermically injected with sterile water. The treated groups were subcutaneously injected with Compounds (1) and (2), respectively. And the positive group was administrated metformin by gavage. All the animals were administrated at 9 am for 2 weeks, and the dose volume is 10 ml/kg BW.
Compound (1) and (2) were respectively dissolved into sterile water, and sterilized with filtration for Sc. The metformin was dissolved into sterile water for lg. to the positive control group. Mice in the control group were injected with sterile water (10 ml/kg BW), Sc. All the animals were treated at 9 am for 2 weeks (14 days).
Blood detection: Blood glucose was measured weekly. Overnight fasting glycemia was measured by One Touch ULTRA Glucometer (LifeScan Johnson and Johnson, USA) for the tail blood test.
End of the experiment: After mice being administrated for 2 weeks (14 days), the experiment was terminated.

`CC(=O)OC1C(OC(=O)/C=C/c2ccc(C)cc2)C(C)OC(OC(=O)[C@]23CCC(C)(C)C[C@H]2C2C=C[C@@H]4[C@@]5(C)CC[C@H](OC6OC(C(=O)O)C(O)C(OC7OCC(O)C(O)C7O)C6OC6OC(CO)C(O)C(O)C6O)[C@@](C)(C=O)[C@@H]5CC[C@@]4(C)[C@]2(C)C[C@H]3O)C1OC1OC(C)C(O)C(O)C1O` (stereo partly drawn) [Compound (1), sinocrassuloside VI] was tested, and the “anti-hyperglycemia efficacy compared with glucobay” value ([1]; 4.0 mg/kg Sc vs glucobay 20 mg/kg lg, 2 weeks) was “much stronger than that of the glucobay”, the glycemia level ([1]; 4.0 mg/kg Sc, after 2 weeks, vs model group) was “significantly decreased” and the body weight growth ([2]; 2.0 mg/kg BW Sc, 2 weeks) was “best effect of resistance on body weight growth”. The food intake ([2]; after 1 week, compounds 2.0 mg/kg Sc, metformin 500 mg/kg lg) was “decreased obviously”, the overall anti-diabetic effects ([3]; KK^Ay mice, 2.0 mg/kg Sc, 2 weeks, comparison among compounds) was “best anti-diabetic effects” and the “duration of hypoglycemic effect compared with metformin” value ([3]; KK^Ay mice, after stopping medication) was “lasts longer than that of metformin”. The “descending rates of blood glucose” value ([3]; T2DM mice, 2 mg/kg, two weeks after subcutaneous injection) was 70%, the glycemia level ([4]; after 1 week) was “no significant difference was found except the Compound (1) group (p<0.05, vs. control group)” and the glycemia level ([4]; after 2 weeks) was “decreased much obviously”.
